A value given as a limit tells only on which side of the number the result lay.

One assay deals with Escherichia coli (ATCC25922) or Staphylococcus aureus (ATCC25923). Kind of assay: Antibacterial MIC, microdilution method in Mueller-Hinton medium. Format: cell-based. Particulars: Escherichia coli, 18 h, MIC in E. coli or S. aureus; two-fold serial dilutions 64 to 0.5 μg/ml in duplicate; 18 hours of incubation at 35° C.; read-out: Potency (MIC). Here is the method:
The antibacterial activity of the Formula I compounds was evaluated against standard bacterial strains by determining the minimal inhibitory concentration (MIC) to block growth. Each drug was assayed by the microdilution method in Mueller-Hinton medium, as recommended by the National Committee for Clinical Laboratory Standards. Approved Standard M7-A5: Methods for Dilution Antimicrobial Susceptibility Tests for Bacteria That Grow Aerobically 5th Ed. (National Committee for Clinical Laboratory Standards, Wayne, Pa., 2000). The tested bacterial strains included Escherichia coli (American Type Collection ATCC25922), Staphylococcus aureus (ATCC25923), and Pseudomonas aeruginosa (ATCC27853). Two-fold serial dilutions of each compound ranging from 64 to 0.5 μg/ml were tested in duplicate. The MIC was determined as the lowest concentration of each compound that prevented bacterial growth after 18 hours of incubation at 35° C. […] The mass of each compound in the Table was confirmed by LC-MS.
In the case of `Cl.O=C(Nc1ccc(Nc2nc(NCCCn3ccnc3)nc(N3CCCCC3)n2)cc1O)c1ccc(Cl)cc1`, the MIC was under 64 µg/mL.
Same read-out and setting: then `Cl.NC1C[C@H](N)CN(c2nc(Nc3ccc(Br)c4ccccc34)nc(N3C[C@H](N)C[C@H](N)C3)n2)C1` (stereo in doubt) [N-(4-bromo-naphthalen-1-yl)-4,6-Bis-((3R,5S)-3,5-diamino-piperidin-1-yl)-[1,3,5]triazine-2-amine], with under 64 µg/mL.
With `Cl.NC1C[C@@H](N)CN(c2nc(Nc3ccc(O)cc3[N+](=O)[O-])nc(N3C[C@H](N)C[C@H](N)C3)n2)C1` (stereo in doubt) [N-(4-hydroxy-2-nitro-phenyl)-4,6-Bis-((3R,5S)-3,5-diamino-piperidin-1-yl)-[1,3,5]triazine-2-amine], the MIC was over 64 µg/mL.
The same measure, in the same setting: to `Cl.NC1C[C@@H](N)CN(c2nc(Nc3ccc(NC(=O)c4cc(Cl)ccc4O)cc3)nc(N3C[C@H](N)C[C@H](N)C3)n2)C1` (stereo in doubt) [N-[4-(5-chloro-2-hydroxy-benzoylamino)-phenyl]-4,6-Bis-((3R,5S)-3,5-diamino-piperidin-1-yl)-[1,3,5]triazine-2-amine] belongs under 16 µg/mL; to `Cl.N[C@@H]1C[C@H](N)CN(c2nc(N3C[C@H](N)C[C@H](N)C3)nc(-n3cnc4ccccc43)n2)C1` [1-(4,6-Bis-((3R,5S)-3,5-diamino-piperidin-1-yl)-[1,3,5]triazin-2-yl)-1H-benzoimidazole], over 64 µg/mL; to `NC1CCN(c2nc(N3C[C@H](N)C[C@H](N)C3)nc(N3C[C@H](N)C[C@H](N)C3)n2)CC1` [1-(4,6-Bis-((3R,5S)-3,5-diamino-piperidin-1-yl)-[1,3,5]triazin-2-yl)-piperidine-3-carboxylic aciddiethylamide], over 64 µg/mL.
Same read-out and setting: then `Cl.O=C(Nc1ccc(Nc2nc(N3CCCCC3)nc(N3CCCCC3)n2)cc1)c1ccc2ccccc2c1O` [1-Hydroxy-naphthalene-2-carboxylic acid {4-[4-((3S,5R)-3,5-diamino-piperidin-12-yl)-6-((3R,5R)-3,5-dihydroxy-piperidin-1-yl)-[1,3,5]triazin-2-ylamino]-phenyl}-amide], with under 64 µg/mL.

The same assay, now with this note: Escherichia coli, 18 h, read-out: Potency (MIC).
With `N[C@@H]1C[C@H](N)CN(c2nc(Nc3ccc(NC(=O)c4ccc(Cl)cc4)c(O)c3)nc(NC3CCNCC3)n2)C1`, the MIC is under 16 µg/mL.
For the compound `N[C@@H]1C[C@H](N)CN(c2cc(Nc3ccc(NC(=O)c4ccc5ccccc5c4O)cc3)cc(N3C[C@H](N)C[C@H](N)C3)n2)C1` [1-Hydroxy-naphthalene-2-carboxylic acid [4-(2,6-Bis-((3R,5S)-3,5-diamino-piperidin-1-yl)-pyridin-4-ylamino)-phenyl]-amide], the minimum inhibitory concentration (MIC) was under 16 µg/mL.
For the compound `N[C@@H]1C[C@H](N)CN(c2nc(N3C[C@H](N)C[C@H](N)C3)c(Cl)c(Nc3ccc(NC(=O)c4ccc5ccccc5c4O)cc3)c2Cl)C1` [1-Hydroxy-naphthalene-2-carboxylic acid [4-(3,5-dichloro-2,6-Bis-((3R,5S)-3,5-diamino-piperidin-1-yl)-pyridin-4-ylamino)-phenyl]-amide], the MIC was under 16 µg/mL.
For `N[C@@H]1C[C@H](N)CN(c2cc(Nc3ccc(NC(=O)c4ccc5ccccc5c4O)cc3)nc(N3C[C@H](N)C[C@H](N)C3)c2)C1` [1-Hydroxy-naphthalene-2-carboxylic acid [4-(4,6-Bis-((3R,5S)-3,5-diamino-piperidin-1-yl)-pyridin-2-ylamino)-phenyl]-amide], the MIC is under 16 µg/mL.
On to `NC[C@H]1[C@@H](O)CCN1c1nc(Nc2ccc(NC(=O)c3ccc4ccccc4c3O)cc2)nc(N2C[C@H](N)C[C@H](N)C2)n1` [1-Hydroxy-naphthalene-2-carboxylic acid {4-[4-((2S,3S)-2-aminomethyl-3-hydroxy-pyrrolidin-1-yl)-6-((3R,5S)-3,5-diamino-piperidin-1-yl)-[1,3,5]triazin-2-ylamino]-phenyl}-amide], for which the MIC was under 16 µg/mL.
Consider `NC[C@@H]1C[C@H](N)CN1c1nc(Nc2ccc(NC(=O)c3ccc4ccccc4c3O)cc2)nc(N2C[C@H](N)C[C@H](N)C2)n1` [1-Hydroxy-naphthalene-2-carboxylic acid {4-[4-((2S,4S)-4-amino-2-aminomethyl-pyrrolidin-1-yl)-6-((3R,5S)-3,5-diamino-piperidin-1-yl)-[1,3,5]triazine-2-ylamino]-phenyl}-amide], for which the MIC is under 16 µg/mL.
In the case of `NC[C@@H]1CN(c2nc(Nc3ccc(NC(=O)c4ccc5ccccc5c4O)cc3)nc(N3C[C@H](N)C[C@H](N)C3)n2)CC[C@@H]1O` [1-Hydroxy-naphthalene-2-carboxylic acid {4-[4-((3R,4S)-3-aminomethyl-4-hydroxy-piperidin-1-yl)-6-((3R,5S)-3,5-diamino-piperidin-1-yl)-[1,3,5]triazin-2-ylamino]-phenyl}-amide], the MIC is under 16 µg/mL.
The same measure, in the same setting: then `NC[C@@H]1C[C@H](CN)CN(c2nc(Nc3ccc(NC(=O)c4ccc5ccccc5c4O)cc3)nc(N3C[C@H](N)C[C@H](N)C3)n2)C1` [1-Hydroxy-naphthalene-2-carboxylic acid {4-[4-((3R,5S)-3,5-bis-(aminomethyl)-piperidin-1-yl)-6-((3R,5S)-3,5-diamino-piperidin-1-yl)-[1,3,5]triazine-2-ylamino]-phenyl}-amide], with under 16 µg/mL.
In the case of `N[C@@H]1C[C@H](N)CN(c2nc(Nc3ccc(NC(=O)c4ccc5ccccc5c4O)cc3)nc(N3C[C@@H](N)[C@@H](N)C3)n2)C1` [1-Hydroxy-naphthalene-2-carboxylic acid {4-[4-((3R,5S)-3,5-diamino-piperidin-1-yl)-6-((3R,4S)-3,4-diamino-pyrrolidin-1-yl)-[1,3,5]triazin-2-ylamino]-phenyl}-amide], the MIC was under 16 µg/mL.
On to `COc1nc(Nc2ccc(NC(=O)c3ccc4ccccc4c3O)cc2)nc(N2C[C@H](N)C[C@H](N)C2)n1` [1-Hydroxy-naphthalene-2-carboxylic acid {4-[4-((3R,5S)-3,5-diamino-piperidin-1-yl)-6-methoxy-[1,3,5]triazin-2-ylamino]-phenyl}-amide], for which the MIC was under 16 µg/mL.
Take `N[C@@H]1C[C@H](N)CN(c2nc(Nc3ccc(NC(=O)c4ccc5ccccc5c4O)cc3)nc(N3C[C@@H](O)[C@@H](O)C3)n2)C1` [1-Hydroxy-naphthalene-2-carboxylic acid {4-[4-((3S,5R)-3,5-diamino-piperidin-1-yl)-6-((3R,4S)-3,4-dihydroxy-pyrrolidin-1-yl)-[1,3,5]triazin-2-ylamino]-phenyl}-amide]: the MIC was under 64 µg/mL.
On the same count and under the same terms, to `NCCN(CCN)c1nc(Nc2ccc(NC(=O)c3ccc4ccccc4c3O)cc2)nc(N2C[C@H](N)C[C@H](N)C2)n1` [1-Hydroxy-naphthalene-2-carboxylic acid {4-[4-[bis-(2-amino-ethyl)-amino]-6-((3R,5S)-3,5-diamino-piperidin-1-yl)-[1,3,5]triazin-2-ylamino]-phenyl}-amide] belongs under 16 µg/mL.
With `N[C@@H]1C[C@H](N)CN(c2ccc(NC(=O)c3ccc4ccccc4c3O)cc2)C1` [1-Hydroxy-naphthalene-2-carboxylicacid [4-((3S,5R)-3,5-diamino-piperidin-1-yl)-phenyl]-amide], the MIC is over 64 µg/mL.
Take `N[C@@H]1C[C@H](N)CN(c2cc(Nc3ccc(NC(=O)c4ccc5ccccc5c4O)cc3)nc(N3C[C@H](N)C[C@H](N)C3)n2)C1` [1-Hydroxy-naphthalene-2-carboxylicacid {4-[2-((3R,5S)-3,5-diamino-piperidin-1-yl)-6-((3S,5R)-3,5-diamino-piperidin-1-yl)-pyrimidin-4-ylamino]-phenyl}-amide]: the minimum inhibitory concentration (MIC) is under 16 µg/mL.
Still for that read-out and setting: to `NCCNc1nc(Nc2ccc(NC(=O)c3ccc4ccccc4c3O)cc2)nc(N2C[C@H](N)C[C@H](N)C2)n1` [1-Hydroxy-naphthalene-2-carboxylicacid {4-[4-(2-amino-ethylamino)-6-((3R,5S)-3,5-diamino-piperidin-1-yl)-[1,3,5]triazin-2-ylamino]-phenyl}-amide] belongs under 16 µg/mL.
For the compound `NC[C@@H]1C[C@@H](O)CN1c1nc(Nc2ccc(NC(=O)c3ccc4ccccc4c3O)cc2)nc(N2C[C@H](N)C[C@H](N)C2)n1` [1-Hydroxy-naphthalene-2-carboxylicacid {4-[4-((2S,4R)-2-aminomethyl-4-hydroxy-pyrrolidin-1-yl)-6-((3R,5S)-3,5-diamino-piperidin-1-yl)-[1,3,5]triazin-2-ylamino]-phenyl}-amide], the MIC was under 64 µg/mL.
Consider `N[C@@H]1C[C@H](N)CN(c2nc(Nc3ccc(NC(=O)c4ccc5ccccc5c4O)cc3)nc(N3CCC[C@@H](O)C3)n2)C1` [1-Hydroxy-naphthalene-2-carboxylicacid {4-[4-((3S,5R)-3,5-diamino-piperidin-1-yl)-6-((R)-3-hydroxy-piperidin-1-yl)-[1,3,5]triazin-2-ylamino]-phenyl}-amide], for which the MIC was under 64 µg/mL.

Still in this assay, the particulars now being: MIC in E. coli or S. aureus; two-fold serial dilutions 64 to 0.5 μg/ml in duplicate; 18 hours of incubation at 35° C.
With `Cc1ccc(S(=O)(=O)N(Cc2ccccc2)c2ccc(Nc3nc(N4C[C@H](N)C[C@H](N)C4)nc(N4CC[C@H](O)[C@@H]4CN)n3)c(O)c2)cc1`, the “Potency (MIC)” value was “+ (+ means MIC<64 μg/ml in E. coli or S. aureus)”.
The same measure, in the same setting: then “7-[4-((2S,4S)-4-Amino-2-aminomethyl-pyrrolidin-11-yl)-6-((3R,5S)-3,5-diamino-piperidin-1-yl)-[1,3,5]triazin-2-ylamino]-4-methyl-chromen-2-one”, with “− (− means MIC>64 μg/ml in E. coli or S. aureus)”.

The values are drawn from US7223759B2, “Antibacterial 3,5-diaminopiperidine-substituted aromatic and heteroaromatic compounds” (Anadys Pharmaceuticals, Inc., priority 2003, dated 2007).
